Results reported in patent publication US11312712B2, “Azabenzimidazoles and their use as AMPA receptor modulators” (Janssen Pharmaceutica NV, priority 2015, dated 2022).

Target: GluA1o-γ8 (GRIA1o-CACNG8 fusion construct) (Homo sapiens (Human), UniProt P42261+Q8WXS5)
Test: Calcium flux assay (FLIPR), inhibition of TARP γ8 dependent AMPA receptor activity
Assay type: cell-based
Conditions: GluA1o-γ8 (GRIA1o-CACNG8 fusion) in HEK293 cells, calcium flux after 15 μM glutamate
Outline: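 Glutamate (15 μM) was added to a stable HEK293 line carrying the GluA1o–γ8 fusion, which had been preincubated with compound and calcium dye in HEPES buffer, pH 7.4. Normalized FLIPR fluorescence (no compound vs 10 μM CP465022) was fitted with four parameters; pIC50 is the midpoint's negative log.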

Sequence of GluA1o-γ8 (GRIA1o-CACNG8 fusion construct) (P42261 other isoform, or with tags, fused parts or gaps): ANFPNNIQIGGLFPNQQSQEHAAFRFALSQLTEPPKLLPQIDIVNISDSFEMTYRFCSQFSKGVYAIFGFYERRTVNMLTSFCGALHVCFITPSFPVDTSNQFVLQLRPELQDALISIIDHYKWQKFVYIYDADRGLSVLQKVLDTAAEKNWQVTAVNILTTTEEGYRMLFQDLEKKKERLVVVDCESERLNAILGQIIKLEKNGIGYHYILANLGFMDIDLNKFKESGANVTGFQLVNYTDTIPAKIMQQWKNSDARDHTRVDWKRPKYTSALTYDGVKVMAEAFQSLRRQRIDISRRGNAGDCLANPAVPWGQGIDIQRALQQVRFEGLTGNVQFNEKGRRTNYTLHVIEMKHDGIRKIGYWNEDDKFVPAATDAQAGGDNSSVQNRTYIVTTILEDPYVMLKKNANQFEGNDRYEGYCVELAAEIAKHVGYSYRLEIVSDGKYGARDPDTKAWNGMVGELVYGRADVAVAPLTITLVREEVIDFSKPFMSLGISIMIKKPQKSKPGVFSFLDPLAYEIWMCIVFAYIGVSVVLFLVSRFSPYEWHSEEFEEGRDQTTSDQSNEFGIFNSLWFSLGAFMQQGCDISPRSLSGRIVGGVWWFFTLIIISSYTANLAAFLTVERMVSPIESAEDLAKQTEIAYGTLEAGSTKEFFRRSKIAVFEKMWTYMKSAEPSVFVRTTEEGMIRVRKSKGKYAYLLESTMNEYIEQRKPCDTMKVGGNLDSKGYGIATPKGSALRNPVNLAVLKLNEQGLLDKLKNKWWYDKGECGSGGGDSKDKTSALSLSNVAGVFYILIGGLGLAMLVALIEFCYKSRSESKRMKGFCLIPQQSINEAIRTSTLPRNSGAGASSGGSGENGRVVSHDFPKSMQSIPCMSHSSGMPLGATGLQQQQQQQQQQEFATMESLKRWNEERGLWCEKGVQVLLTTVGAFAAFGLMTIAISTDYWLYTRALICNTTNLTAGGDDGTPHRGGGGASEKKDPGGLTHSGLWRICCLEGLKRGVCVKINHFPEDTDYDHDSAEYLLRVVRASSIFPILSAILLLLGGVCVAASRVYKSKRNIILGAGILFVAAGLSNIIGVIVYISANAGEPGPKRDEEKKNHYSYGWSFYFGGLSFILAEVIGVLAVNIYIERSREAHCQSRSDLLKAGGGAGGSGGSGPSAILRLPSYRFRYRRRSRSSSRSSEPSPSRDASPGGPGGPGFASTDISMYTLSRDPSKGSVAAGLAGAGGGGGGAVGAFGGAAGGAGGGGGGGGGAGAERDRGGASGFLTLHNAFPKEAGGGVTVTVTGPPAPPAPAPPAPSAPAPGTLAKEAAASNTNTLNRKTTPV

Row | Compound | IC50
1 | OC/C=C/c1cc(-n2c(C(F)(F)F)nc3ccc(C(F)(F)F)nc32)cc2cn[nH]c12 [Example 219, (E)-3-(5-(2,5-Bis(trifluoromethyl)-3H-imidazo[4,5-b]pyridin-3-yl)-1H-indazol-7-yl)prop-2-en-1-ol] | 15.8 nM
2 | CCCc1cc(-n2c(C(F)(F)F)nc3ccc(C(F)(F)F)nc32)cc2cn[nH]c12 [Example 221, 3-(7-Propyl-1H-indazol-5-yl)-2,5-bis(trifluoromethyl)-3H-imidazo[4,5-b]pyridine] | 0.126 nM
3 | Cc1cc(-n2c(C(F)(F)F)nc3ccc(CCCO)nc32)cc2cn[nH]c12 [Example 223, 3-(3-(7-Methyl-1H-indazol-5-yl)-2-(trifluoromethyl)-3H-imidazo[4,5-b]pyridin-5-yl)propan-1-ol] | 100 nM
4 | Oc1cc(-c2nc3ccc(C(F)(F)F)nc3n2-c2ccc3[nH]ncc3c2)ccn1 [Example 225, 4-[3-(1H-Indazol-5-yl)-5-(trifluoromethyl)imidazo[4,5-b]pyridin-2-yl]pyridin-2-ol] | 251 nM
5 | O=c1[nH]c2ccc(-n3c(C(F)(F)F)nc4c(N5CCOCC5)cc(C(F)(F)F)nc43)cc2s1 [Example 230, 6-[7-Morpholino-2,5-bis(trifluoromethyl)imidazo[4,5-b]pyridin-3-yl]-3H-1,3-benzothiazol-2-one] | 1 nM
6 | O=c1[nH]c2ccc(-n3c(C(F)(F)C(F)(F)F)nc4ccc(C(F)(F)F)nc43)cc2s1 [Example 233, 6-[2-(1,1,2,2,2-Pentafluoroethyl)-5-(trifluoromethyl)imidazo[4,5-b]pyridin-3-yl]-3H-1,3-benzothiazol-2-one] | 0.316 nM
7 | O=c1[nH]c2ccc(-n3c(C(F)(F)F)nc4ccc(C(F)(F)F)nc43)cc2o1 [Example 236, 6-[2,5-Bis(trifluoromethyl)imidazo[4,5-b]pyridin-3-yl]-3H-1,3-benzoxazol-2-one] | 6.31 nM
8 | COc1nc2ccc(C(F)(F)F)nc2n1-c1cc(C)c2[nH]ncc2c1 [Example 241, 2-Methoxy-3-(7-methyl-1H-indazol-5-yl)-5-(trifluoromethyl)imidazo[4,5-b]pyridine] | 0.398 nM
9 | CCOc1nc2ccc(C(F)(F)F)nc2n1-c1cc(C)c2[nH]ncc2c1 [Example 242, 2-Ethoxy-3-(7-methyl-1H-indazol-5-yl)-5-(trifluoromethyl)imidazo[4,5-b]pyridine] | 0.398 nM
10 | CCOc1nc2ccc(C(F)(F)F)nc2n1-c1ccc2c(c1)CC(=O)N2 [Example 243, 5-[2-Ethoxy-5-(trifluoromethyl)imidazo[4,5-b]pyridin-3-yl]indolin-2-one] | 15.8 nM
11 | COc1nc2ccc(C(F)(F)F)nc2n1-c1ccc2c(c1)CC(=O)N2 [Example 244, 5-[2-Methoxy-5-(trifluoromethyl)imidazo[4,5-b]pyridin-3-yl]indolin-2-one] | 39.8 nM
12 | CS(=O)(=O)Cc1nc2ccc(C(F)(F)F)nc2n1-c1ccc2[nH]ncc2c1 [Example 245, 3-(1H-indazol-5-yl)-2-(methylsulfonylmethyl)-5-(trifluoromethyl)imidazo[4,5-b]pyridine] | 316 nM

Continued by falling IC50, values first:

Row | IC50 | Compound
13 | 398 nM | FC(F)(F)c1ccc2ncn(-c3ccc4[nH]ncc4c3)c2n1 [Example 226, 3-(1H-Indazol-5-yl)-5-(trifluoromethyl)imidazo[4,5-b]pyridine]
14 | 158 nM | OCCCc1cc(-n2c(C(F)(F)F)nc3ccc(C(F)(F)F)nc32)cc2cn[nH]c12 [Example 220, 3-(5-(2,5-Bis(trifluoromethyl)-3H-imidazo[4,5-b]pyridin-3-yl)-1H-indazol-7-yl)propan-1-ol]
15 | 63.1 nM | O=c1[nH]c2ccc(-n3c(C(F)F)nc4ccc(C(F)(F)F)nc43)cc2o1 [Example 235, 6-[2-(Difluoromethyl)-5-(trifluoromethyl)imidazo[4,5-b]pyridin-3-yl]-3H-1,3-benzoxazol-2-one]
16 | 31.6 nM | Cc1cc(-n2c(C(F)(F)F)nc3ccc(/C=C/CO)nc32)cc2cn[nH]c12 [Example 222, (E)-3-(3-(7-Methyl-1H-indazol-5-yl)-2-(trifluoromethyl)-3H-imidazo[4,5-b]pyridin-5-yl)prop-2-en-1-ol]
17 | 15.8 nM | CCC(F)(F)c1nc2ccc(C(F)(F)F)nc2n1-c1ccc2[nH]ncc2c1 [Example 232, 2-(1,1-Difluoropropyl)-3-(1H-indazol-5-yl)-5-(trifluoromethyl)imidazo[4,5-b]pyridine]
18 | 3.98 nM | FC(F)(F)c1cc(N2CCOCC2)c2nc(C(F)(F)F)n(-c3ccc4[nH]ncc4c3)c2n1 [Example 231, 4-[3-(1H-Indazol-5-yl)-2,5-bis(trifluoromethyl)imidazo[4,5-b]pyridin-7-yl]morpholine]
19 | 2.51 nM | Fc1n[nH]c2ccc(-n3c(C(F)(F)F)nc4ccc(C(F)(F)F)nc43)cc12 [Example 237, 3-(3-Fluoro-1H-indazol-5-yl)-2,5-bis(trifluoromethyl)imidazo[4,5-b]pyridine]
20 | 2 nM | COc1nc2ccc(C(F)(F)F)nc2n1-c1ccc2[nH]c(=O)sc2c1 [Example 239, 6-[2-Methoxy-5-(trifluoromethyl)imidazo[4,5-b]pyridin-3-yl]-3H-1,3-benzothiazol-2-one]
21 | 1 nM | CCOc1nc2ccc(C(F)(F)F)nc2n1-c1ccc2[nH]c(=O)sc2c1 [Example 240, 6-[2-Ethoxy-5-(trifluoromethyl)imidazo[4,5-b]pyridin-3-yl]-3H-1,3-benzothiazol-2-one]
22 | 0.398 nM | FC(F)c1ccc2nc(C(F)(F)F)n(-c3ccc4[nH]ncc4c3)c2n1 [Example 238, 5-(Difluoromethyl)-3-(1H-indazol-5-yl)-2-(trifluoromethyl)imidazo[4,5-b]pyridine]
23 | 0.158 nM | CCCc1ccc2nc(C(F)(F)F)n(-c3cc(C)c4[nH]ncc4c3)c2n1 [Example 224, 3-(7-Methyl-1H-indazol-5-yl)-5-propyl-2-(trifluoromethyl)-3H-imidazo[4,5-b]pyridine]
24 | 0.126 nM | Cc1cc(-n2c3nc(C(F)(F)F)ccc3nc2[C@H]2C[C@@H](F)C2)cc2cn[nH]c12 [Example 246, 2-(3-Fluorocyclobutyl)-3-(7-methyl-1H-indazol-5-yl)-5-(trifluoromethyl)imidazo[4,5-b]pyridine]
25 | 0.0794 nM | O=c1[nH]c2ccc(-n3c(C(F)F)nc4ccc(C(F)(F)F)nc43)cc2s1 [Example 234, 6-[2-(Difluoromethyl)-5-(trifluoromethyl)imidazo[4,5-b]pyridin-3-yl]-3H-1,3-benzothiazol-2-one]
26 | 0.0501 nM | FCCOc1cc(C(F)(F)F)nc2c1nc(C(F)(F)F)n2-c1cc(Cl)c2[nH]ncc2c1 [Example 218, 3-(7-Chloro-1H-indazol-5-yl)-7-(2-fluoroethoxy)-2,5-bis(trifluoromethyl)imidazo[4,5-b]pyridine]
27 | 0.0501 nM | FC(F)c1ccc2nc(C3CC3)n(-c3cc(Cl)c4[nH]ncc4c3)c2n1 [Example 227, 3-(7-Chloro-1H-indazol-5-yl)-2-cyclopropyl-5-(difluoromethyl)imidazo[4,5-b]pyridine]
28 | 0.0158 nM | Cc1cc(-n2c(-c3ccc(F)cc3)nc3ccc(C(F)F)nc32)cc2cn[nH]c12 [Example 228, 5-(Difluoromethyl)-2-(4-fluorophenyl)-3-(7-methyl-1H-indazol-5-yl)imidazo[4,5-b]pyridine]
29 | 0.00631 nM | Fc1ccc(-c2nc3ccc(C(F)F)nc3n2-c2cc(Cl)c3[nH]ncc3c2)cc1 [Example 229, 3-(7-Chloro-1H-indazol-5-yl)-5-(difluoromethyl)-2-(4-fluorophenyl)imidazo[4,5-b]pyridine]
